For data set [1] the following is noted: cited from earlier work; for Humidity stability / form conversion: as disclosed in WO2020010216A1 (FIG. 1, Table 17).
Data set [2] is described as follows: Flowability (compressibility index, USP <1174>). It is filed as physicochemical. The conditions noted are these: for Compressibility index: c=(pf−p0)/pf; for Flowability: criteria of USP <1174> Powder Flow. As for the experimental part: Compressibility index is usually utilized to evaluate the flowability of powder or granules during the drug product process. Compressibility index test method is as follows: a certain amount of powder was added into a measuring cylinder and bulk volume was recorded. Then the powder was tapped to make it in the tightest state and the tapped volume was recorded. The bulk density (p0), tapped density (pf) were calculated and compressibility index was calculated according to c=(pf−p0)/pf. According to the criteria of flowability in USP General Charpters: <1174> Powder Flow, the flowability results are shown in Table 10.

The nature of data set [3]: Adhesiveness (material sticking to the punch). It is filed as physicochemical. To be noted: 30 mg, Φ8 mm round tooling, 10 KN, held 30 s. As for the experimental part:
30 mg of Form CSII and 30 mg of prior art Form 1B were weighed and then added into the dies of Φ8 mm round tooling, compressed at 10 KN by ENERPAC manual tablet press and held for 30 s. The punch was weighed and amount of material sticking to the punch was calculated. The compression was repeated twice and the average amount of material sticking to the punch during the compression were calculated.

The nature of data set [4]: Kinetic solubility in FeSSIF. It is filed as physicochemical. The conditions noted are these: 37° C., 30 min, 10 mg in 1 mL. As for the experimental part:
When solubility test is used to predict the in vivo performance of a drug, it is critical to simulate in vivo conditions as closely as possible. For oral medication, Fed-State Simulated Intestinal Fluid (FeSSIF) can be used to simulate the condition in vivo and predict the effects of feeding, thus solubility in such mediums is closer to that in vivo.
10 mg of Form CSII and 10 mg of prior art Form 1B were suspended into 1 mL of FeSSIF to get suspensions. After equilibrated at 37° C. for 30 min, the suspensions were filtrated to get saturated solutions. The concentrations (mg/mL) of Compound I of the saturated solutions were measured by HPLC.

Data set [5] is described as follows: Compressibility (tablet hardness / tensile strength). The conditions noted are these: 60 mg, φ6 mm round tooling, 5 KN; for Hardness: 24 h recovery. It is filed as physicochemical. As for the experimental part: An ENERPAC manual tablet press was used for compression. 60 mg of Form CSII and prior art Form 1B were weighed and added into the dies of a φ6 mm round tooling, compressed at 5 KN manually, then stored at room temperature for 24 h until elastic recovery is complete, hardness (H) was tested with an intelligent tablet hardness tester. Diameter (D) and thickness (L) were tested with a caliper. Tensile strength of the powder was calculated with the following formula: T=2H/TTDL. Under a certain force, the greater the tensile strength, the better the compressibility.

A short description of data set [6]: Particle size distribution (laser particle size analyzer, wet mode). Format: physicochemical. As for the experimental part: The particle size distribution data in the present disclosure were acquired by an Mastersizer 3000 laser particle size analyzer of Malvern. The test was carried out in wet mode, using a Hydro MV dispersion device, and the dispersant was Isopar G. The parameters are as follows:
An appropriate amount of Form CSII of the present disclosure and prior art Form 1B was tested particle size distribution. The average particle diameter calculated by volume, the diameter at which 10% mass is comprised of smaller particles (D10), the diameter at which 50% mass is comprised of smaller particles (D50) and the diameter at which 90% mass is comprised of smaller particles (D90) were obtained in particle size distribution test.

Another data set in a line: Morphology by microscopy. It is filed as physicochemical. To be noted: magnification of 200 times. An excerpt: An appropriate amount of Form CSII of the present disclosure was placed on a glass slide and dispersed with vacuum pump oil. It was covered with a cover glass slide and shoot at a magnification of 200 times.
A short description of data set [7]: Storage stability of Form CSII drug substance (XRPD, HPLC). Format: physicochemical. As for the experimental part: An appropriate amount of Form CSII of the present disclosure were stored under different sealed conditions of 25° C./60% RH and 40° C./75% RH with desiccant and antioxidant. Chemical purity and crystalline form were checked by HPLC and XRPD, respectively. […] Form CSII has good stability under both long-term and accelerated conditions.

A short description of data set [8]: Stability upon mechanical force (tableting pressure, grinding). It is filed as physicochemical.
A short description of data set [9]: Crystal form stability in formulation process. Format: physicochemical. To be noted: formulation of Table 15, process of Table 16. An excerpt:
Form CSII of the present disclosure was made into capsules using the formulation in Table 15 and the preparation process in Table 16. The XRPD patterns were collected before and after the formulation process.

For data set [10] the following is noted: low solubility and low permeability; cited from earlier work.
Where [11] appears, read: 25° C./60% RH, sealed with desiccant and antioxidant, 6 months.
Setting [12] is: 40° C./75% RH, sealed with desiccant and antioxidant, 6 months.

Converted amounts (≈) assume the structure as drawn.

For `CCNCCc1ccc(CN(CC)c2cc(OC)ccc2[C@@H]2CCc3cc(O)ccc3C2)cc1` [Form 3], the “Humidity stability / form conversion” value in [1] is reported as “transitions to Form 2 when humidity is above 40% RH”.
`CCNCCc1ccc(CN(CC)c2cc(OC)ccc2[C@@H]2CCc3cc(O)ccc3C2)cc1` [Form 2]: in data set [1], the “Humidity stability / form conversion” value is recorded as “transitions to Form 3 when humidity is below 40% RH”.
For `CCNCCc1ccc(CN(CC)c2cc(OC)ccc2[C@@H]2CCc3cc(O)ccc3C2)cc1` [Form 1], in data set [1], the “Humidity stability / form conversion” value is recorded as “transitions to Form 3 under high humidity conditions”.
Regarding `CCNCCc1ccc(CN(CC)c2cc(OC)ccc2[C@@H]2CCc3cc(O)ccc3C2)cc1` [Prior art Form 1B, reference compound], in [2], the Bulk density stood at 0.198 g/mL, the Tapped density was 0.248 g/mL, the Compressibility index was found to be 20 and the Flowability result is “Fair”. Further, in data set [1] (Table 17 of WO2020010216A1), the Particle morphology entry is “very small flaky particle mainly composed of aggregates”. The “Humidity stability / form conversion” value in data set [1] is “can maintain stability at humidity above 90% RH”. The “Average amount of material sticking to the punch” value in data set [3] amounted to 0.59 mg. In data set [4], this compound returned a Solubility of 1170 µg/mL (≈ 2.55 mM). Also, in data set [5], the Tensile strength was 0.44 MPa and the Hardness was 9.3 kgf. Also, in data set [6], the D10 was determined as 1.64 μm, the D50 was 286 μm, the D90 was found to be 839 μm and the “MV (average particle diameter calculated by volume)” value was 350 μm.
For `CCNCCc1ccc(CN(CC)c2cc(OC)ccc2[C@@H]2CCc3cc(O)ccc3C2)cc1` [Form CSII, (R)-6-{2-{ethyl [4-(2-ethylaminoethyl)benzyl]amino}-4-methoxyphenyl}-5,6,7,8-tetrahydronaphthalen-2-ol], in data set [2], the Bulk density turned out to be 0.237 g/mL, the Tapped density is 0.266 g/mL, the Compressibility index was found to be 11 and the Flowability entry is “Good”. Further, the “Average amount of material sticking to the punch” value in data set [3] was determined as 0.21 mg. For the same compound, in data set [4], the Solubility was 2590 µg/mL (≈ 5.65 mM). For the same compound, in the data set “Morphology by microscopy”, the “Agglomeration (morphology)” value is listed as “no agglomeration” and the Maximum particle size was 30-40 μm. In data set [5], this compound showed a Tensile strength of 0.97 MPa and a Hardness of 18.4 kgf. Also, the “Time kept stable (crystalline state unchanged)” value in data set [7] (25° C./60% RH) was “at least 6 months”. In data set [7] (setting [11]), the “Form (XRPD)” value is given as “Form CSII” and the Purity is 99.60%. The “Time kept stable (crystalline state unchanged)” value in [7] (40° C./75% RH) is “at least 6 months”. In data set [7] (setting [12]), the “Form (XRPD)” value was “Form CSII” and the Purity came out at 99.58%. In [7] (Initial), the “Form (XRPD)” value was “Form CSII” and the Purity is reported as 99.59%. In [6], the D10 is reported as 2.11 μm, the D50 was 14.9 μm, the D90 stood at 28.3 μm and the “MV (average particle diameter calculated by volume)” value is 15.8 μm. For the same compound, the “Solid form after tableting” value in data set [8] (Pressure 5 kN) was “Form CSII”. The “Solid form after tableting” value in data set [8] (Pressure 10 kN) was “Form CSII”. Besides, the “Solid form after tableting” value in data set [8] (Pressure 15 kN) is on record as “Form CSII”. Besides, in data set [8] (grinding (ball milling, FIG. 5)), the “Crystalline form after grinding” value is on record as “doesn't change”. The “Crystalline form before and after formulation process” value in [9] was “remains stable”.
Regarding `CCNCCc1ccc(CN(CC)c2cc(OC)ccc2[C@@H]2CCc3cc(O)ccc3C2)cc1` [Elacestrant, (R)-6-{2-{ethyl [4-(2-ethylaminoethyl)benzyl]amino}-4-methoxyphenyl}-5,6,7,8-tetrahydronaphthalen-2-ol], the BCS class entry in data set [10] is “BCS class IV”.

(Values after patent US20250282711A1, “CRYSTALLINE FORM OF ELACESTRANT AND PREPARATION METHOD AND USE THEREOF” (CRYSTAL PHARMACEUTICAL (SUZHOU) CO., LTD., priority 2022, published 2025).)
